Data on two compounds can be found in patent US9200051B2, “Peptide compound” (TAKEDA PHARMACEUTICAL COMPANY LIMITED, priority 2013, dated 2015).

The target in one series is T1, human GIPR (Homo sapiens, UniProt P48546).
T1 construct: expressed in transfected cells; host or cells: CHO-K1 (CRE-LUC/CHO-K1), plasmid hGIPR/pMSRα-neo
T1 sequence (P48546 22-466): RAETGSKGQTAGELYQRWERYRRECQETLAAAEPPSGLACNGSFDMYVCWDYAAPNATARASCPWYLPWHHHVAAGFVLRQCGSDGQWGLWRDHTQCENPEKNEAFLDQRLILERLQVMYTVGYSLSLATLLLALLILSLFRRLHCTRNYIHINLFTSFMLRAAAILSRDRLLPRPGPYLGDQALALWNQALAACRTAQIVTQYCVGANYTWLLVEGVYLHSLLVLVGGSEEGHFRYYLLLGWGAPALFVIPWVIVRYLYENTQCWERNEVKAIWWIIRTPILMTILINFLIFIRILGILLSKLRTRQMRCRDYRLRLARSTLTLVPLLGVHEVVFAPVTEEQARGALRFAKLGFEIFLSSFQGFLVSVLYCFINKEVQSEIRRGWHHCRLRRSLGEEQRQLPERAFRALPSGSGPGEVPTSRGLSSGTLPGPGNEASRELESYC
Put plainly: Agonist activity against human GIPR, CRE-luciferase reporter assay (rise in intracellular cAMP) in hGIPR/CRE-LUC/CHO-K1 cells. In kind it is cell-based.

A further series deals with T2, human glucagon R (Homo sapiens, UniProt P47871).
T2 construct: expressed in transfected cells; host or cells: CHO-K1 (CRE-LUC/CHO-K1), plasmid hGlucagonR/pMSRα-neo
T2 sequence (P47871 26-477): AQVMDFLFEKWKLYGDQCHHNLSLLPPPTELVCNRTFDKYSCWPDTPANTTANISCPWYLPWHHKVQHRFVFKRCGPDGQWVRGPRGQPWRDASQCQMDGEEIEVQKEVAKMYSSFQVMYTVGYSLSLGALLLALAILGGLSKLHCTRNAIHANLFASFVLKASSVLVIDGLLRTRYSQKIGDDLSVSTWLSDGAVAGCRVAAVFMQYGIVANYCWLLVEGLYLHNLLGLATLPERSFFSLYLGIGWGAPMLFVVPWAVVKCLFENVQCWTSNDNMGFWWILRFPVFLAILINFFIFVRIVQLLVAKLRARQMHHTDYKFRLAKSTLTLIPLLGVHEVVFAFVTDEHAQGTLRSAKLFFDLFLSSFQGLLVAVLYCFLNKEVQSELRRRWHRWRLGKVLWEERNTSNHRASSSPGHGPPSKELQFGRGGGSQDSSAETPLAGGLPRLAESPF
Description: Agonist activity against human glucagon R, CRE-luciferase reporter assay in hGlucagonR/CRE-LUC/CHO-K1 cells. In kind it is cell-based.

The next series has as its target T3, human GLP-1R (Homo sapiens, UniProt P43220).
T3 construct: expressed in transfected cells; host or cells: CHO-K1, plasmids hGLP-1/pIRESneo3 and Cre-luc(Zeo)
Description: Agonist activity against human GLP-1R, CRE-luciferase reporter assay in hGLP-1R/CRE-luc/CHO-K1 cells. In kind it is cell-based. Background: In a reporter assay the amount or activity of a reporter protein is the signal.

A short description of series [1]: Solubility test in Britton-Robinson buffer, observed visually. In kind it is physicochemical. As to the method: The test compound of approximately 2 mg was measured precisely. Solvents (10 μL, 20 μL or 40 μL) with different pH (Britton-Robinson buffer (pH 3, 5, 7, 9)) were added to each test compound at 25° C., and the solubility was observed visually.

Structures are written as SMILES. Like-named read-outs stand apart in the source and are kept apart here. Square brackets hold non-standard residues; d marks the D form. Peptide text beside a SMILES is read from it. αMeF = C[C@](N)(Cc1ccccc1)C(=O)O; Aib = CC(C)(N)C(=O)O A value given as a limit tells only on which side of the number the result lay.

T3 sequence (P43220 24-463): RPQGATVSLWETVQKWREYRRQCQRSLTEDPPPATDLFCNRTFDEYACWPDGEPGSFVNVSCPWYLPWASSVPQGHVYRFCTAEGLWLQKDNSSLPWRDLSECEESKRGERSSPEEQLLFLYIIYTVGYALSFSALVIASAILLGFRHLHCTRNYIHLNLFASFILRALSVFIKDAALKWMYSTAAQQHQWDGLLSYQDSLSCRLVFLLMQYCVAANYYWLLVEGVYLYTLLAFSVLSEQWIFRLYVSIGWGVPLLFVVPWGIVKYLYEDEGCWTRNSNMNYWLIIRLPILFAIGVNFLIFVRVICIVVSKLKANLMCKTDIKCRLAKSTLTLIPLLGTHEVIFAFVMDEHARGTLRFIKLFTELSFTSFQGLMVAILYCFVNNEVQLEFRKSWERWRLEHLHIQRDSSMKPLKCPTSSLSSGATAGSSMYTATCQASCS

By EC50 is commonly meant the midpoint of the concentration-response curve. Consider `CC[C@H](C)[C@H](NC(=O)C(C)(C)NC(=O)[C@H](Cc1ccc(O)cc1)NC(=O)[C@H](CC(=O)O)NC(=O)[C@H](CO)NC(=O)[C@@H](NC(=O)[C@](C)(Cc1ccccc1)NC(=O)[C@@H](NC(=O)CNC(=O)[C@H](CCC(=O)O)NC(=O)C(C)(C)NC(=O)[C@@H](N)Cc1ccc(O)cc1)[C@@H](C)O)[C@@H](C)O)C(=O)NC(C)(C)C(=O)N[C@@H](CC(C)C)C(=O)N[C@@H](CC(=O)O)C(=O)N[C@@H](CCCCN)C(=O)N[C@@H](CCC(N)=O)C(=O)N[C@@H](C)C(=O)N[C@@H](CCC(N)=O)C(=O)N[C@@H](C)C(=O)N[C@@H](CCC(=O)O)C(=O)N[C@@H](Cc1ccccc1)C(=O)N[C@H](C(=O)N[C@@H](CCCCN)C(=O)N[C@@H](Cc1c[nH]c2ccccc12)C(=O)N[C@@H](CC(C)C)C(=O)N[C@@H](CC(C)C)C(=O)N[C@@H](CCCCN)C(=O)NCC(=O)NCC(=O)N1CCC[C@H]1C(=O)N[C@@H](CO)C(=O)N[C@@H](CO)C(=O)NCC(=O)N[C@@H](C)C(=O)N1CCC[C@H]1C(=O)N1CCC[C@H]1C(=O)N1CCC[C@H]1C(=O)N[C@@H](CO)C(=O)N[C@@H](CCCCN)C(N)=O)C(C)C` [Example 2] (H-Y[Aib]EGT[αMeF]TSDY[Aib]I[Aib]LDKQAQAEFVKWLLKGGPSSGAPPPSK-NH2), for which the EC50 at human GIPR is 0.0068 nM; on human glucagon R, above 1000 nM; at human GLP-1R, 0.016 nM. Also, the solubility in series [1] (Britton-Robinson buffer pH 3, 25° C., visual, read-out: Solubility (mg /mL) pH 3) is above 100 mg/mL; in series [1] (Britton-Robinson buffer pH 5, 25° C., visual, read-out: Solubility (mg /mL) pH 5), above 100 mg/mL; in series [1] (Britton-Robinson buffer pH 7, 25° C., visual, read-out: Solubility (mg /mL) pH 7), above 50 mg/mL; in series [1] (Britton-Robinson buffer pH 9, 25° C., visual, read-out: Solubility (mg /mL) pH 9) it was above 50 mg/mL.

With `CC(C)C[C@H](NC(=O)[C@H](CC(C)C)NC(=O)[C@H](Cc1c[nH]c2ccccc12)NC(=O)[C@H](CCCCN)NC(=O)[C@@H](NC(=O)[C@H](Cc1ccccc1)NC(=O)[C@H](CCC(=O)O)NC(=O)[C@H](C)NC(=O)[C@H](CCC(N)=O)NC(=O)[C@H](C)NC(=O)[C@H](CCC(N)=O)NC(=O)[C@H](CCCCN)NC(=O)[C@H](CC(=O)O)NC(=O)[C@H](CC(C)C)NC(=O)[C@H](Cc1ccc(O)cc1)NC(=O)[C@H](CCCCN)NC(=O)C(C)(C)NC(=O)[C@H](Cc1ccc(O)cc1)NC(=O)[C@H](CC(=O)O)NC(=O)[C@H](CO)NC(=O)[C@@H](NC(=O)[C@](C)(Cc1ccccc1)NC(=O)[C@@H](NC(=O)CNC(=O)[C@H](CCC(=O)O)NC(=O)C(C)(C)NC(=O)[C@@H](N)Cc1ccc(O)cc1)[C@@H](C)O)[C@@H](C)O)C(C)C)C(=O)N[C@@H](CCCCN)C(=O)NCC(=O)NCC(=O)N1CCC[C@H]1C(=O)N[C@@H](CO)C(=O)N[C@@H](CO)C(=O)NCC(=O)N[C@@H](C)C(=O)N1CCC[C@H]1C(=O)N1CCC[C@H]1C(=O)N1CCC[C@H]1C(=O)N[C@@H](CO)C(=O)N[C@@H](CCCCN)C(N)=O` [Example 24] (H-Y[Aib]EGT[αMeF]TSDY[Aib]KYLDKQAQAEFVKWLLKGGPSSGAPPPSK-NH2), the EC50 at human GIPR (hGIPR/CRE-LUC/CHO-K1 cells, 4 hours incubation, 10 nM GIP = 100%, read-out: Agonist activity (EC50) hGIPR) is 0.0099 nM; at human glucagon R (hGlucagonR/CRE-LUC/CHO-K1 cells, 4 hours incubation, 10 nM glucagon = 100%, read-out: Agonist activity (EC50) hGCGR) it was above 1000 nM; at human GLP-1R (hGLP-1R/CRE-luc/CHO-K1 cells, 4 hours incubation, 10 nM GLP-1 = 100%, read-out: Agonist activity (EC50) hGLP-1R), 0.011 nM. The solubility in series [1] (pH 3), in series [1] (pH 5), in series [1] (pH 7) and in series [1] (pH 9) was above 200 mg/mL in each case.
